{
  "source": "ChEMBL document CHEMBL4049411",
  "about": "“Rational Design, Synthesis, and Biological Evaluation of Heterocyclic Quinolones Targeting the Respiratory Chain of Mycobacterium tuberculosis” (J Med Chem, 2017)",
  "key": {"[1]": {"test": "Drug metabolism in Sprague-Dawley rat assessed as M1 metabolite formation in bile at 50 mg/kg, po via gavage up to 9 hrs by HPLC analysis", "format": "ADME, organism-based", "conditions": "in vivo"}, "[2]": {"test": "Drug metabolism in Sprague-Dawley rat assessed as M3 metabolite formation in bile at 50 mg/kg, po via gavage up to 9 hrs by HPLC analysis", "format": "ADME, organism-based", "conditions": "in vivo"}, "Rattus norvegicus [3]": {"system": "Rattus norvegicus", "test": "Half life in Wistar rat assessed as 2-(4-(3,3-Difluoropyrrolidin-1-yl)phenyl)-5,7-difluoro-3-methylquinolin-4(1H)-one at 10 mg/kg administered via oral gavage after 24 hrs by LC-MS/MS analysis", "format": "ADME, organism-based", "conditions": "in vivo"}, "Rattus norvegicus [4]": {"system": "Rattus norvegicus", "test": "Cmax in Wistar rat assessed as 2-(4-(3,3-Difluoropyrrolidin-1-yl)phenyl)-5,7-difluoro-3-methylquinolin-4(1H)-one at 10 mg/kg administered via oral gavage after 24 hrs by LC-MS/MS analysis", "format": "ADME, organism-based", "parameters": "dose 10 mg/kg, route oral", "conditions": "in vivo"}, "Rattus norvegicus [5]": {"system": "Rattus norvegicus", "test": "Half life in Wistar rat assessed as 2-(4-(3,3-Difluoropyrrolidin-1-yl)phenyl)-5,7-difluoro-3-methylquinolin-4(1H)-one at 0.5 mg/kg, iv after 24 hrs by LC-MS/MS analysis", "format": "ADME, organism-based", "conditions": "in vivo"}, "Rattus norvegicus [6]": {"system": "Rattus norvegicus", "test": "Clearance in Wistar rat assessed as 2-(4-(3,3-Difluoropyrrolidin-1-yl)phenyl)-5,7-difluoro-3-methylquinolin-4(1H)-one at 0.5 mg/kg, iv after 24 hrs by LC-MS/MS analysis", "format": "ADME, organism-based", "conditions": "in vivo"}, "Rattus norvegicus [7]": {"system": "Rattus norvegicus", "test": "Oral bioavailability in Wistar rat assessed as 2-(4-(3,3-Difluoropyrrolidin-1-yl)phenyl)-5,7-difluoro-3-methylquinolin-4(1H)-one at 10 mg/kg administered via gavage after 24 hrs by LC-MS/MS analysis", "format": "ADME, organism-based", "conditions": "in vivo"}, "[8]": {"test": "AUC in Wistar rat at 10 mg/kg administered via oral gavage after 24 hrs by LC-MS/MS analysis", "format": "ADME, organism-based", "parameters": "dose 10 mg/kg, time < 24 hr, route oral", "conditions": "in vivo"}, "Rattus norvegicus [9]": {"system": "Rattus norvegicus", "test": "Oral bioavailability in Wistar rat assessed as 2-(4-(3,3-Difluoropyrrolidin-1-yl)phenyl)-5,7-difluoro-3-methylquinolin-4(1H)-one at 50 mg/kg administered via gavage after 24 hrs by LC-MS/MS analysis", "format": "ADME, organism-based", "conditions": "in vivo"}, "[10]": {"test": "Drug metabolism in Sprague-Dawley rat assessed as 2-(4-(3,3-difluoro-4-hydroxypyrrolidin-1-yl)phenyl)-5,7-difluoro-3-methylquinolin-4(1H)-one metabolite formation in urine at 50 mg/kg, po via gavage up to 9 hrs by HPLC analysis", "format": "ADME, organism-based", "conditions": "in vivo"}, "[11]": {"test": "Retention time of compound by HPLC anlaysis"}, "[12]": {"test": "Half life in Wistar rat at 50 mg/kg administered via oral gavage after 24 hrs by LC-MS/MS analysis", "format": "ADME, organism-based", "conditions": "in vivo"}, "[13]": {"test": "AUC in Wistar rat at 50 mg/kg administered via oral gavage after 24 hrs by LC-MS/MS analysis", "format": "ADME, organism-based", "parameters": "time < 24 hr, dose 50 mg/kg, route oral", "conditions": "in vivo"}, "Rattus norvegicus [14]": {"system": "Rattus norvegicus", "test": "AUC in Wistar rat assessed as 2-(4-(3,3-Difluoropyrrolidin-1-yl)phenyl)-5,7-difluoro-3-methylquinolin-4(1H)-one at 50 mg/kg administered via oral gavage after 24 hrs by LC-MS/MS analysis", "format": "ADME, organism-based", "parameters": "dose 50 mg/kg, time < 24 hr, route oral", "conditions": "in vivo"}, "[15]": {"test": "Prodrug activation in Sprague-Dawley rat assessed as 2-(4-(3,3-difluoropyrrolidin-1-yl)phenyl)-5,7-difluoro-3-methylquinolin-4(1H)-one formation in urine at 50 mg/kg, po via gavage up to 9 hrs by HPLC analysis", "format": "organism-based", "conditions": "in vivo"}, "Rattus norvegicus [16]": {"system": "Rattus norvegicus", "test": "Half life in Wistar rat assessed as 2-(4-(3,3-Difluoropyrrolidin-1-yl)phenyl)-5,7-difluoro-3-methylquinolin-4(1H)-one at 50 mg/kg administered via oral gavage after 24 hrs by LC-MS/MS analysis", "format": "ADME, organism-based", "conditions": "in vivo"}, "Rattus norvegicus [17]": {"system": "Rattus norvegicus", "test": "AUC in Wistar rat assessed as 2-(4-(3,3-Difluoropyrrolidin-1-yl)phenyl)-5,7-difluoro-3-methylquinolin-4(1H)-one at 0.5 mg/kg, iv after 24 hrs by LC-MS/MS analysis", "format": "ADME, organism-based", "parameters": "time < 24 hr, dose 0.5 mg/kg, route intravenous", "conditions": "in vivo"}, "[18]": {"test": "Oral bioavailability in Wistar rat at 10 mg/kg administered via gavage after 24 hrs by LC-MS/MS analysis", "format": "ADME, organism-based", "conditions": "in vivo"}, "[19]": {"test": "Oral bioavailability in Wistar rat at 50 mg/kg administered via gavage after 24 hrs by LC-MS/MS analysis", "format": "ADME, organism-based", "conditions": "in vivo"}, "[20]": {"test": "Drug metabolism in Sprague-Dawley rat assessed as M3 metabolite formation in urine at 50 mg/kg, po via gavage up to 9 hrs by HPLC analysis", "format": "ADME, organism-based", "conditions": "in vivo"}, "[21]": {"test": "Prodrug activation in Sprague-Dawley rat assessed as 2-(4-(3,3-difluoropyrrolidin-1-yl)phenyl)-5,7-difluoro-3-methylquinolin-4(1H)-one formation in bile at 50 mg/kg, po via gavage up to 9 hrs by HPLC analysis", "format": "organism-based", "conditions": "in vivo"}, "Rattus norvegicus [22]": {"system": "Rattus norvegicus", "test": "AUC in Wistar rat assessed as 2-(4-(3,3-Difluoropyrrolidin-1-yl)phenyl)-5,7-difluoro-3-methylquinolin-4(1H)-one at 10 mg/kg administered via oral gavage after 24 hrs by LC-MS/MS analysis", "format": "ADME, organism-based", "parameters": "dose 10 mg/kg, time < 24 hr, route oral", "conditions": "in vivo"}, "[23]": {"test": "Cmax in Wistar rat at 10 mg/kg administered via oral gavage after 24 hrs by LC-MS/MS analysis", "format": "ADME, organism-based", "parameters": "dose 10 mg/kg, route oral", "conditions": "in vivo"}, "[24]": {"test": "Drug metabolism in Sprague-Dawley rat assessed as M2 metabolite formation in bile at 50 mg/kg, po via gavage up to 9 hrs by HPLC analysis", "format": "ADME, organism-based", "conditions": "in vivo"}, "Rattus norvegicus [25]": {"system": "Rattus norvegicus", "test": "Volume of distribution in steady state in Wistar rat assessed as 2-(4-(3,3-Difluoropyrrolidin-1-yl)phenyl)-5,7-difluoro-3-methylquinolin-4(1H)-one at 0.5 mg/kg, iv after 24 hrs by LC-MS/MS analysis", "format": "ADME, organism-based", "conditions": "in vivo"}, "Rattus norvegicus [26]": {"system": "Rattus norvegicus", "test": "Cmax in Wistar rat assessed as 2-(4-(3,3-Difluoropyrrolidin-1-yl)phenyl)-5,7-difluoro-3-methylquinolin-4(1H)-one at 50 mg/kg administered via oral gavage after 24 hrs by LC-MS/MS analysis", "format": "ADME, organism-based", "parameters": "dose 50 mg/kg, route oral", "conditions": "in vivo"}, "[27]": {"test": "Cmax in Wistar rat at 50 mg/kg administered via oral gavage after 24 hrs by LC-MS/MS analysis", "format": "ADME, organism-based", "parameters": "dose 50 mg/kg, route oral", "conditions": "in vivo"}, "[28]": {"test": "Half life in Wistar rat at 10 mg/kg administered via oral gavage after 24 hrs by LC-MS/MS analysis", "format": "ADME, organism-based", "conditions": "in vivo"}, "[29]": {"test": "Drug metabolism in Sprague-Dawley rat assessed as 2-(4-(3,3-difluoro-4-hydroxypyrrolidin-1-yl)phenyl)-5,7-difluoro-3-methylquinolin-4(1H)-one metabolite formation in bile at 50 mg/kg, po via gavage up to 9 hrs by HPLC analysis", "format": "ADME, organism-based", "conditions": "in vivo"}},
  "data": [
    {"compound": "CC(=O)Oc1c(C)c(-c2ccc(N3CCC(F)(F)C3)cc2)nc2cc(F)cc(F)c12", "values": [
      {"measurement": "Drug metabolism", "setting": "[1]", "result": "Metabolite_Detected"},
      {"measurement": "Drug metabolism", "setting": "[2]", "result": "Metabolite_Detected"},
      {"measurement": "t1/2", "setting": "Rattus norvegicus [3]", "result": 3.8, "unit": "h"},
      {"measurement": "Cmax", "setting": "Rattus norvegicus [4]", "result": 610, "unit": "ng/mL"},
      {"measurement": "t1/2", "setting": "Rattus norvegicus [5]", "result": 1.48, "unit": "h"},
      {"measurement": "CL", "setting": "Rattus norvegicus [6]", "result": 8.73, "unit": "mL/min/kg"},
      {"measurement": "F", "setting": "Rattus norvegicus [7]", "result": 28, "unit": "%"},
      {"measurement": "AUC at 24 h", "setting": "[8]", "result": 12300, "unit": "ng·h/mL"},
      {"measurement": "F", "setting": "Rattus norvegicus [9]", "result": 17.1, "unit": "%"},
      {"measurement": "Drug metabolism", "setting": "[10]", "result": "Metabolite_Detected"},
      {"measurement": "Retention time", "setting": "[11]", "result": 14.3, "unit": "min"},
      {"measurement": "half-life", "setting": "[12]", "result": 2.3, "unit": "h"},
      {"measurement": "AUC at 24 h", "setting": "[13]", "result": 29600, "unit": "ng·h/mL"},
      {"measurement": "AUC", "setting": "Rattus norvegicus [14]", "result": 16500, "unit": "ng·h/mL"},
      {"measurement": "Drug metabolism", "setting": "[15]", "result": "Metabolite_Detected"},
      {"measurement": "t1/2", "setting": "Rattus norvegicus [16]", "result": 4.2, "unit": "h"},
      {"measurement": "AUC", "setting": "Rattus norvegicus [17]", "result": 964, "unit": "ng·h/mL"},
      {"measurement": "bioavailability", "setting": "[18]", "result": 63.8, "unit": "%"},
      {"measurement": "bioavailability", "setting": "[19]", "result": 30.7, "unit": "%"},
      {"measurement": "Drug metabolism", "setting": "[20]", "result": "Metabolite_Detected"},
      {"measurement": "Drug metabolism", "setting": "[21]", "result": "Metabolite_Detected"},
      {"measurement": "AUC", "setting": "Rattus norvegicus [22]", "result": 5400, "unit": "ng·h/mL"},
      {"measurement": "Cmax", "setting": "[23]", "result": 1700, "unit": "ng/mL"},
      {"measurement": "Drug metabolism", "setting": "[24]", "result": "Metabolite_Detected"},
      {"measurement": "Vdss", "setting": "Rattus norvegicus [25]", "result": 0.291, "unit": "L/kg"},
      {"measurement": "Cmax", "setting": "Rattus norvegicus [26]", "result": 1400, "unit": "ng/mL"},
      {"measurement": "Cmax", "setting": "[27]", "result": 4000, "unit": "ng/mL"},
      {"measurement": "half-life", "setting": "[28]", "result": 3.9, "unit": "h"},
      {"measurement": "Drug metabolism", "setting": "[29]", "result": "Metabolite_Detected"}
    ]}
  ]
}
